Legend:
[1] = biological target: T1, Fumarylacetoacetate hydrolase (WT FAH) (Homo sapiens, UniProt P16930); assay: STD NMR titration; methyl-TROSY M140 splitting; assay type: binding
T1 sequence (P16930 2-419): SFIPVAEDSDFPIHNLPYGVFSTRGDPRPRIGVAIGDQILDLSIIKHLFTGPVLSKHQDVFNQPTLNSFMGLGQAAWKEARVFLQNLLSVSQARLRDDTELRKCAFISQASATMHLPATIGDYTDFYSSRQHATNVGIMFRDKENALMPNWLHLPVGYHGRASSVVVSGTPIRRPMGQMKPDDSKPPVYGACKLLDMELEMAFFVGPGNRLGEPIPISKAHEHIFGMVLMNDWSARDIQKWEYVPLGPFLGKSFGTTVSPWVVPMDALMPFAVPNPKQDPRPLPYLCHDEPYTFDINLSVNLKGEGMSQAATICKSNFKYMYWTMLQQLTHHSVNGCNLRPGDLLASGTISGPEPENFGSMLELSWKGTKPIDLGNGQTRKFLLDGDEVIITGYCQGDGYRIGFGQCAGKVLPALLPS

[2] = biological target: T1, Fumarylacetoacetate hydrolase (WT FAH); assay: STD NMR titration; methyl-TROSY M140 shift; assay type: binding

Structure (SMILES)	Kd [1]	Kd [2]
C#Cc1ccncc1 [G1.30.B10]	235 µM	–
C(#Cc1ccncc1)c1ccncc1 [G2.HT1.1]	–	20 µM
Cc1ccnc(NC(=O)c2ccc(C)c(N)c2)c1 [G2.HT1.4]	–	21 µM

Reference: PMC7916972, “Therapeutic Targeting of Fumaryl Acetoacetate Hydrolase in Hereditary Tyrosinemia Type I” (International Journal of Molecular Sciences, 2021)
